Experimental data: patent US20260070945A1, “MACROCYCLIC IMMUNOMODULATORS” (Bristol-Myers Squibb Company, priority 2022, published 2026)
Where a SMILES comes first, the peptide text is derived from it. Bridges are numbered along the chain shown (N, C = ends). [ ]: non-standard residue; d: D form. The star is where a group is joined. Phe(4-COOH) = N[C@@H](Cc1ccc(C(=O)O)cc1)C(=O)O; Bip = N[C@@H](Cc1ccc(-c2ccccc2)cc1)C(=O)O; 4Pal = N[C@@H](Cc1ccncc1)C(=O)O; Cha = N[C@@H](CC1CCCCC1)C(=O)O; Carboxymethyl = O=C(O)C*; NMeA = CN[C@@H](C)C(=O)O; Orn = NCCC[C@H](N)C(=O)O; Aun = NCCCCCCCCCCC(=O)O; Dab = NCC[C@H](N)C(=O)O; Dap = NC[C@H](N)C(=O)O; AEEA = NCCOCCOCC(=O)O

What follows are compounds tested against T1, PD-1/PD-L1 interaction (PE-labeled human PD-L1-Ig binding to Jurkat cell line over-expressing human PD-1) (Homo sapiens, UniProt Q15116) (assay: Jurkat-PD-1 Cell Binding High-Content Screening Assay (CBA)). Conditions: Jurkat-hPD-1 cells, PE-labeled PD-L1-Ig 20 nM final; read-out: Jurkat HPD1 PDL1 IC50.
T1 construct: expressed in transfected cells; host or cells: Jurkat
Outline: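 In this imaging assay, cells in 10% FCS medium see compound for 2 h at 37 °C and then labeled ligand at 20 nM final for 1 h. Paraformaldehyde fixation, Hoechst 33342 staining and dPBS washes precede image capture.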

T1 sequence (Q15116 25-288): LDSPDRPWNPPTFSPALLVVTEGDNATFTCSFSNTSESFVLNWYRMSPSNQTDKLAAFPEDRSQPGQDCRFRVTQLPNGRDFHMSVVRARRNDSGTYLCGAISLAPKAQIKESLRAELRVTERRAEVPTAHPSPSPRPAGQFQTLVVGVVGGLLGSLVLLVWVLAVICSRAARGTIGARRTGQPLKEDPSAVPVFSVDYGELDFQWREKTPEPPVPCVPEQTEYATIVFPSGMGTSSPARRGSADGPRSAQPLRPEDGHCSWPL

SMILES	IC50 [nM]
CC[C@H](C)[C@@H]1NC(=O)[C@H](Cc2ccc(-c3ccccc3)cc2)NC(=O)[C@H](CC(C)C)NC(=O)[C@H](Cc2c[nH]c3ccccc23)NC(=O)[C@H](CC(=O)O)NC(=O)[C@H](Cc2ccc(C(=O)O)cc2)NC(=O)[C@H](Cc2ccc(OCC(=O)O)cc2)NC(=O)CSC[C@@H](C(=O)N[C@@H](CCCN)C(=O)NCCOCCOCC(=O)NCCCCCCCCCCC(=O)O)NC(=O)[C@H](CO)NC(=O)[C@H](C(C)C)NC(=O)[C@H](CC2CCCCC2)NC(=O)[C@H](CCN)NC(=O)[C@@H](CC(C)C)NC(=O)[C@H](C)N(C)C1=O [Example 1078] ({CH2CO}-Y(Carboxymethyl)[Phe(4-COOH)]DWL[Bip]I[NMeA][dL][Dab][Cha]VSC[Orn][AEEA][Aun]-OH; thioether N-14)	16.1
CC[C@H](C)[C@@H]1NC(=O)[C@H](Cc2ccc(-c3ccccc3)cc2)NC(=O)[C@H](CC(C)C)NC(=O)[C@H](Cc2c[nH]c3ccccc23)NC(=O)[C@H](CC(=O)O)NC(=O)[C@H](Cc2ccc(C(=O)O)cc2)NC(=O)[C@H](Cc2ccc(OCC(=O)O)cc2)NC(=O)CSC[C@@H](C(=O)N[C@@H](CCCNC(=N)N)C(=O)NCCOCCOCC(=O)NCCCCCCCCCCC(=O)O)NC(=O)[C@H](CO)NC(=O)[C@H](C(C)C)NC(=O)[C@H](CC2CCCCC2)NC(=O)[C@H](CCN)NC(=O)[C@@H](CC(C)C)NC(=O)[C@H](C)N(C)C1=O [Example 1080] ({CH2CO}-Y(Carboxymethyl)[Phe(4-COOH)]DWL[Bip]I[NMeA][dL][Dab][Cha]VSCR[AEEA][Aun]-OH; thioether N-14)	18.6
CC(C)C[C@@H]1NC(=O)[C@H](Cc2c[nH]c3ccccc23)NC(=O)[C@H](CC(=O)O)NC(=O)[C@H](Cc2ccncc2)NC(=O)[C@H](Cc2ccc(OCC(=O)O)cc2)NC(=O)CSC[C@@H](C(=O)N[C@@H](CN)C(=O)NCCCCCCCCCCC(=O)O)NC(=O)[C@H](CO)NC(=O)[C@H](C(C)C)NC(=O)[C@H](CC2CCCCC2)NC(=O)[C@H](CCN)NC(=O)[C@@H](CC(C)C)NC(=O)[C@H](C)N(C)C(=O)[C@H](C(C)C)NC(=O)[C@H](Cc2ccc(-c3ccccc3)cc2)NC1=O [Example 1082] ({CH2CO}-Y(Carboxymethyl)[4Pal]DWL[Bip]V[NMeA][dL][Dab][Cha]VSC[Dap][Aun]-OH; thioether N-14)	28.2
CC(C)C[C@@H]1NC(=O)[C@H](Cc2c[nH]c3ccccc23)NC(=O)[C@H](CC(=O)O)NC(=O)[C@H](Cc2ccncc2)NC(=O)[C@H](Cc2ccc(OCC(=O)O)cc2)NC(=O)CSC[C@@H](C(=O)N[C@@H](CCN)C(=O)NCCCCCCCCCCC(=O)O)NC(=O)[C@H](CO)NC(=O)[C@H](C(C)C)NC(=O)[C@H](CC2CCCCC2)NC(=O)[C@H](CCN)NC(=O)[C@@H](CC(C)C)NC(=O)[C@H](C)N(C)C(=O)[C@H](C(C)C)NC(=O)[C@H](Cc2ccc(-c3ccccc3)cc2)NC1=O [Example 1083] ({CH2CO}-Y(Carboxymethyl)[4Pal]DWL[Bip]V[NMeA][dL][Dab][Cha]VSC[Dab][Aun]-OH; thioether N-14)	15.7
CC(C)C[C@@H]1NC(=O)[C@H](Cc2c[nH]c3ccccc23)NC(=O)[C@H](CC(=O)O)NC(=O)[C@H](Cc2ccncc2)NC(=O)[C@H](Cc2ccc(OCC(=O)O)cc2)NC(=O)CSC[C@@H](C(=O)N[C@@H](CCCN)C(=O)NCCCCCCCCCCC(=O)O)NC(=O)[C@H](CO)NC(=O)[C@H](C(C)C)NC(=O)[C@H](CC2CCCCC2)NC(=O)[C@H](CCN)NC(=O)[C@@H](CC(C)C)NC(=O)[C@H](C)N(C)C(=O)[C@H](C(C)C)NC(=O)[C@H](Cc2ccc(-c3ccccc3)cc2)NC1=O [Example 1084] ({CH2CO}-Y(Carboxymethyl)[4Pal]DWL[Bip]V[NMeA][dL][Dab][Cha]VSC[Orn][Aun]-OH; thioether N-14)	20.9
CC(C)C[C@@H]1NC(=O)[C@H](Cc2c[nH]c3ccccc23)NC(=O)[C@H](CC(=O)O)NC(=O)[C@H](Cc2ccncc2)NC(=O)[C@H](Cc2ccc(OCC(=O)O)cc2)NC(=O)CSC[C@@H](C(=O)N[C@@H](CCCNC(=N)N)C(=O)NCCCCCCCCCCC(=O)O)NC(=O)[C@H](CO)NC(=O)[C@H](C(C)C)NC(=O)[C@H](CC2CCCCC2)NC(=O)[C@H](CCN)NC(=O)[C@@H](CC(C)C)NC(=O)[C@H](C)N(C)C(=O)[C@H](C(C)C)NC(=O)[C@H](Cc2ccc(-c3ccccc3)cc2)NC1=O [Example 1086] ({CH2CO}-Y(Carboxymethyl)[4Pal]DWL[Bip]V[NMeA][dL][Dab][Cha]VSCR[Aun]-OH; thioether N-14)	31
CC(C)C[C@@H]1NC(=O)[C@H](Cc2c[nH]c3ccccc23)NC(=O)[C@H](CC(=O)O)NC(=O)[C@H](Cc2ccncc2)NC(=O)[C@H](Cc2ccc(OCC(=O)O)cc2)NC(=O)CSC[C@@H](C(=O)N[C@@H](Cc2c[nH]cn2)C(=O)NCCCCCCCCCCC(=O)O)NC(=O)[C@H](CO)NC(=O)[C@H](C(C)C)NC(=O)[C@H](CC2CCCCC2)NC(=O)[C@H](CCN)NC(=O)[C@@H](CC(C)C)NC(=O)[C@H](C)N(C)C(=O)[C@H](C(C)C)NC(=O)[C@H](Cc2ccc(-c3ccccc3)cc2)NC1=O [Example 1087] ({CH2CO}-Y(Carboxymethyl)[4Pal]DWL[Bip]V[NMeA][dL][Dab][Cha]VSCH[Aun]-OH; thioether N-14)	33.2

Other lines, results leading:

IC50 [nM]	SMILES
10.8	CC[C@H](C)[C@@H]1NC(=O)[C@H](Cc2ccc(-c3ccccc3)cc2)NC(=O)[C@H](CC(C)C)NC(=O)[C@H](Cc2c[nH]c3ccccc23)NC(=O)[C@H](CC(=O)O)NC(=O)[C@H](Cc2ccc(C(=O)O)cc2)NC(=O)[C@H](Cc2ccc(OCC(=O)O)cc2)NC(=O)CSC[C@@H](C(=O)N[C@@H](CCCCN)C(=O)NCCOCCOCC(=O)NCCCCCCCCCCC(=O)O)NC(=O)[C@H](CO)NC(=O)[C@H](C(C)C)NC(=O)[C@H](CC2CCCCC2)NC(=O)[C@H](CCN)NC(=O)[C@@H](CC(C)C)NC(=O)[C@H](C)N(C)C1=O [Example 1079] ({CH2CO}-Y(Carboxymethyl)[Phe(4-COOH)]DWL[Bip]I[NMeA][dL][Dab][Cha]VSCK[AEEA][Aun]-OH; thioether N-14)
10.1	CC(C)C[C@@H]1NC(=O)[C@H](Cc2c[nH]c3ccccc23)NC(=O)[C@H](CC(=O)O)NC(=O)[C@H](Cc2ccncc2)NC(=O)[C@H](Cc2ccc(OCC(=O)O)cc2)NC(=O)CSC[C@@H](C(=O)NCCOCCOCC(=O)NCCCCCCCCCCC(=O)O)NC(=O)[C@H](CO)NC(=O)[C@H](C(C)C)NC(=O)[C@H](CC2CCCCC2)NC(=O)[C@H](CCN)NC(=O)[C@@H](CC(C)C)NC(=O)[C@H](C)N(C)C(=O)[C@H](C(C)C)NC(=O)[C@H](Cc2ccc(-c3ccccc3)cc2)NC1=O [Example 1081] ({CH2CO}-Y(Carboxymethyl)[4Pal]DWL[Bip]V[NMeA][dL][Dab][Cha]VSC[AEEA][Aun]-OH; thioether N-14)
15.4	CC(C)C[C@@H]1NC(=O)[C@H](Cc2c[nH]c3ccccc23)NC(=O)[C@H](CC(=O)O)NC(=O)[C@H](Cc2ccncc2)NC(=O)[C@H](Cc2ccc(OCC(=O)O)cc2)NC(=O)CSC[C@@H](C(=O)N[C@@H](CCCCN)C(=O)NCCCCCCCCCCC(=O)O)NC(=O)[C@H](CO)NC(=O)[C@H](C(C)C)NC(=O)[C@H](CC2CCCCC2)NC(=O)[C@H](CCN)NC(=O)[C@@H](CC(C)C)NC(=O)[C@H](C)N(C)C(=O)[C@H](C(C)C)NC(=O)[C@H](Cc2ccc(-c3ccccc3)cc2)NC1=O [Example 1085] ({CH2CO}-Y(Carboxymethyl)[4Pal]DWL[Bip]V[NMeA][dL][Dab][Cha]VSCK[Aun]-OH; thioether N-14)
7.1	CC(C)C[C@@H]1NC(=O)[C@H](Cc2c[nH]c3ccccc23)NC(=O)[C@H](CC(=O)O)NC(=O)[C@H](Cc2ccncc2)NC(=O)[C@H](Cc2ccc(OCC(=O)O)cc2)NC(=O)CSC[C@@H](C(=O)N[C@@H](CN)C(=O)NCCOCCOCC(=O)NCCCCCCCCCCC(=O)O)NC(=O)[C@H](CO)NC(=O)[C@H](C(C)C)NC(=O)[C@H](CC2CCCCC2)NC(=O)[C@H](CCN)NC(=O)[C@@H](CC(C)C)NC(=O)[C@H](C)N(C)C(=O)[C@H](C(C)C)NC(=O)[C@H](Cc2ccc(-c3ccccc3)cc2)NC1=O [Example 1088] ({CH2CO}-Y(Carboxymethyl)[4Pal]DWL[Bip]V[NMeA][dL][Dab][Cha]VSC[Dap][AEEA][Aun]-OH; thioether N-14)
5.2	CC(C)C[C@@H]1NC(=O)[C@H](Cc2c[nH]c3ccccc23)NC(=O)[C@H](CC(=O)O)NC(=O)[C@H](Cc2ccncc2)NC(=O)[C@H](Cc2ccc(OCC(=O)O)cc2)NC(=O)CSC[C@@H](C(=O)N[C@@H](CCN)C(=O)NCCOCCOCC(=O)NCCCCCCCCCCC(=O)O)NC(=O)[C@H](CO)NC(=O)[C@H](C(C)C)NC(=O)[C@H](CC2CCCCC2)NC(=O)[C@H](CCN)NC(=O)[C@@H](CC(C)C)NC(=O)[C@H](C)N(C)C(=O)[C@H](C(C)C)NC(=O)[C@H](Cc2ccc(-c3ccccc3)cc2)NC1=O [Example 1089] ({CH2CO}-Y(Carboxymethyl)[4Pal]DWL[Bip]V[NMeA][dL][Dab][Cha]VSC[Dab][AEEA][Aun]-OH; thioether N-14)
8.3	CC(C)C[C@@H]1NC(=O)[C@H](Cc2c[nH]c3ccccc23)NC(=O)[C@H](CC(=O)O)NC(=O)[C@H](Cc2ccncc2)NC(=O)[C@H](Cc2ccc(OCC(=O)O)cc2)NC(=O)CSC[C@@H](C(=O)N[C@@H](CCCN)C(=O)NCCOCCOCC(=O)NCCCCCCCCCCC(=O)O)NC(=O)[C@H](CO)NC(=O)[C@H](C(C)C)NC(=O)[C@H](CC2CCCCC2)NC(=O)[C@H](CCN)NC(=O)[C@@H](CC(C)C)NC(=O)[C@H](C)N(C)C(=O)[C@H](C(C)C)NC(=O)[C@H](Cc2ccc(-c3ccccc3)cc2)NC1=O [Example 1090] ({CH2CO}-Y(Carboxymethyl)[4Pal]DWL[Bip]V[NMeA][dL][Dab][Cha]VSC[Orn][AEEA][Aun]-OH; thioether N-14)
